According to patent publication US20090062403A1, “Compositions and Methods for Treatment of Disorders of Protein Aggregation” (priority 2004, published 2009):
Marks after values point to notes of the source that are not given here.

Tests used:
synaptophysin = experiment: Synaptophysin quantification in CA1 region of the hippocampus; type: in vivo, mouse; conditions: TgCRND8 mice; for increase of synaptophysin reactive boutons and cell bodies: vs untreated
Method: Synaptophysin immunohistochemical staining was performed on 3 evenly spaced saggital sections of paraformaldehyde-fixed treated and control mice. Sections were immunolabelled for synaptophysin with anti-synaptophysin IgG (1:40; Roche, Laval, PQ). Digital images were captured and analyzed as described above. Within each section, three randomly chosen 100 μm^2 areas of the CA1 region of the hippocampus were counted for synaptophysin reactive cell bodies and boutons. The results are expressed as the mean of the number of reactive bodies and boutons per 100 μm^2 [48, 49].

cerebral amyloid plaques = experiment: Cerebral amyloid burden (plaque number, area, size by immunohistochemistry); type: in vivo, mouse; conditions: TgCRND8 mice
Method: Mice. […] This initial dosage was chosen based upon the dosage of myo-cyclohexanehexol (6-18 grams/day/adult or 86-257 mg/Kg/day) that is typically administered to human patients for various psychiatric disorders. […] A cohort of animals (n=10 mice per treatment arm) entered the study at five months of age, and outcomes were then analyzed after one month of treatment. The body weight, coat characteristics and in cage behaviour were monitored. Mannitol was used as a negative control for potential alterations in caloric intake. All experiments were performed according to the Canadian Council on Animal Care guidelines. Behavioural tests: Morris Water Maze testing was performed as previously described. After non-spatial pre-training, mice underwent place discrimination training for 5 days with 4-trials per day, followed by a cued visible platform to rule out general motivational, learning deficits and motor problems, and a probe trial to evaluate memory. […] Open field test for motor activity was preformed as described previously. Duration of walking, pausing and grooming were analyzed as indices of spontaneous locomotor activity. Sensorimotor function was examined with an Economex™ accelerating rotarod (Columbus Instruments, Columbus, Ohio), as described elsewhere. The rod was set to accelerate at a rate of 0.2 r.p.m./s, from an initial, constant speed of 5 r.p.m. Latency to fall was recorded in four daily trials, conducted at 30 min intervals. All mice were trained for seven days before testing. The test day performance score for each animal was obtained by summing its latency to fall over the four trials Cerebral amyloid burden. Brains were removed and one hemisphere was fixed in 4% paraformaldehyde and embedded in paraffin wax in the mid sagittal plane. To generate sets of systematic uniform random sections, 5 μm serial sections were collected across the entire hemisphere. Sets of sections at 50 μm intervals were used for analyses (10-14 sections/set). Plaques were identified after antigen retrieval with formic acid, and incubation with primary anti-Aβ antibody (Dako M-0872), followed by secondary antibody (Dako StreptABCcomplex/horseradish kit). End products were visualized with DAB and were counter-stained with luxol fast blue. Amyloid plaque burden was assessed with LecoIA-3001 image analysis software interfaced with Leica microscope and Hitachi KP-M1U CCD video camera. Openlab imaging software (Improvision, Lexington, Mass.) was then used to convert micrographs to binary images for plaque number and plaque area determinations. Vascular amyloid burden was defined as amyloid originating from or surrounding blood vessels and was analysed similarly. Plasma and Cerebral Aβ Content. Hemi-brain samples were homogenized in a buffered sucrose solution, followed by either 0.4% diethylamine/100 mM NaCl for soluble Aβ levels or cold formic acid for the isolation of total Aβ. After neutralization, the samples were diluted and analyzed for Aβ40 and Aβ42 using commercially available kits (BIOSOURCE International). Each hemisphere was analyzed in triplicate and the mean values±SEM reported. Western blot analyses were performed on all fractions using urea gels for Aβ species analyses. Aβ was detected using 6E10 (BIOSOURCE International) and Enhanced Chemiluminenscence (Amersham). Gliosis Quantitation. Five randomly selected, evenly spaced, sagittal sections were collected from paraformaldehyde-fixed and frozen hemispheres of treated and control mice. Sections were immunolabelled for astrocytes with anti-rat GFAP IgG2, (Dako; diluted 1:50) and for microglia with anti-rat CD68 IgG2b (Dako; 1:50).

7PA2 cells = type: cell-based, Chinese Hamster
Method: Preparation of conditioned media: CHO— or 7PA2 cells were grown to ˜90% confluency. The cells were washed 1× in serum-free DMEM, then incubated overnight (˜15 hrs) in 4 ml/10 cm dish in serum-free DMEM, pen/strep, 1-glutamine with/without AZD-103. The following day, the conditioned media (CM) was collected, spun at 1000×g and treated with complete protease inhibitors (in mg/ml 1 leupeptin, 1 pepstatin, 0.1 aprotinin, 40 EDTA, and 2 mM 1/10 phenantroline) for biochemistry experiments or cell culture compatible protease inhibitors (Sigma P1860 1:1000) for electrophysiology experiments. The CM was stored at −80° C. until sufficient volumes were collected to complete a “batch”—typically ˜300 ml. […] The resulting concentrate was pooled, aliquoted in 1 ml fractions, and stored at −80° C. […] Therefore, for any given set of experiments (i.e. dose response curve, time curve, etc), a single batch is prepared and compared to 7PA2 alone within that batch.

TgCRND8 mice = conditions: mouse, in vivo
Method: Mice. […] This initial dosage was chosen based upon the dosage of myo-cyclohexanehexol (6-18 grams/day/adult or 86-257 mg/Kg/day) that is typically administered to human patients for various psychiatric disorders. […] A cohort of animals (n=10 mice per treatment arm) entered the study at five months of age, and outcomes were then analyzed after one month of treatment. The body weight, coat characteristics and in cage behaviour were monitored. Mannitol was used as a negative control for potential alterations in caloric intake. All experiments were performed according to the Canadian Council on Animal Care guidelines. Behavioural tests: Morris Water Maze testing was performed as previously described. […] Duration of walking, pausing and grooming were analyzed as indices of spontaneous locomotor activity. […] Latency to fall was recorded in four daily trials, conducted at 30 min intervals. […] Amyloid plaque burden was assessed with LecoIA-3001 image analysis software interfaced with Leica microscope and Hitachi KP-M1U CCD video camera. […] Vascular amyloid burden was defined as amyloid originating from or surrounding blood vessels and was analysed similarly. […] After neutralization, the samples were diluted and analyzed for Aβ40 and Aβ42 using commercially available kits (BIOSOURCE International). Each hemisphere was analyzed in triplicate and the mean values±SEM reported. […] Gliosis Quantitation. […]

[1] = 28 day course at 5 months of age, vs untreated
[2] = 28 days treatment, 6 months of age

1,3,5/2,4,6-(scyllo-) cyclohexanehexol [Scyllo-cyclohexanehexol]
number of synaptophysin reactive boutons and cell bodies in the CA1 region (synaptophysin; delayed treatment study): 2625±124 /100 μm^2 | increase of synaptophysin reactive boutons and cell bodies (synaptophysin; delayed treatment study): 150% | number of synaptophysin reactive boutons and cell bodies in the CA1 region (synaptophysin; prophylactic study group): 2384±232 /100 μm^2 | increase of synaptophysin reactive boutons and cell bodies (synaptophysin; prophylactic study group): 148% | percent area of the brain covered by plaques, reduction (cerebral amyloid plaques; [1]): 14±0.5% | plaque number reduction (cerebral amyloid plaques; [1]): 13±0.3% | plaque size reduction (cerebral amyloid plaques; [1]): 16±0.4% | Mean Plaque Size (cerebral amyloid plaques; [2]): 336 ± 6* μm^2 | Total Plaque Area (cerebral amyloid plaques; [2]): 420027 ± 14986* μm^2 | Total Plaque Count (cerebral amyloid plaques; [2]): 1260 ± 27 | toxicity (7PA2 cells, APPs expression, LTP in CHO— conditions) (7PA2 cells): No direct evidence of AZD-103 toxicity was observed | grooming or activity in the open field test (TgCRND8 mice): no effect on grooming or activity | sensorimotor function (Rotarod), treated vs untreated TgCRND8 mice (TgCRND8 mice): no difference
